Measurements as given in patent publication US11173143B2, “Composition for decreasing serum uric acid level” (ASAHI GROUP HOLDINGS, LTD., priority 2017, dated 2021).

Tested on: serum uric acid
Test: Serum uric acid level after 8 weeks of daily intake in subjects with hyperuricemia
Format: in vivo, human
Settings: for Serum uric acid level, After 8 weeks: daily intake
Procedure: Tests were conducted with subjects with hyperuricemia having high serum uric acid levels (7.1 mg/dl or higher) after their written informed consents were obtained. […] Their serum uric acid levels were measured before the intake and after 8 weeks of the intake. A sign test was used as the test of significance.

NCC(=O)O [Gly, glycine]
Amount of change (Average of the group (n=4)): -0.13 mg/dL
Serum uric acid level, Before start of intake (Average of the group (n=4)): 7.73 mg/dL
Serum uric acid level, After 8 weeks (Average of the group (n=4)): 7.60 mg/dL
Amount of change (Subject A): 0.4 mg/dL
Serum uric acid level, Before start of intake (Subject A): 8.9 mg/dL
Serum uric acid level, After 8 weeks (Subject A): 9.3 mg/dL
Amount of change (Subject B): 0.0 mg/dL
Serum uric acid level, Before start of intake (Subject B): 7.8 mg/dL
Serum uric acid level, After 8 weeks (Subject B): 7.8 mg/dL
Amount of change (Subject C): -0.5 mg/dL
Serum uric acid level, Before start of intake (Subject C): 7.1 mg/dL
Serum uric acid level, After 8 weeks (Subject C): 6.6 mg/dL
Amount of change (Subject D): -0.4 mg/dL
Serum uric acid level, Before start of intake (Subject D): 7.1 mg/dL
Serum uric acid level, After 8 weeks (Subject D): 6.7 mg/dL
Change of serum uric acid levels after 8 weeks of continuous intake (in words) (subjects with hyperuricemia): slightly decreased after 8 weeks of continuous intake, but the decreases were not significant
